Experimental data from ChEMBL document CHEMBL2176908, “Structure-aided design of novel inhibitors of HIV protease based on a benzodiazepine scaffold” (J Med Chem, 2012).
Active and inactive are the calls of the source. The rule behind the calls is not given here.

Legend:
[1] = target: T1, Protease (Human immunodeficiency virus 1, UniProt Q9YQ12); test: Inhibition of HIV1 protease by spectrophotometric assay
[2] = target: T1, Protease; test: Inhibition of HIV1 protease by double-reciprocal Lineweaver-Burk plot; conditions: read-out: Ki(app)
[3] = target: Cathepsin D (Homo sapiens) (UniProt P07339); test: Inhibition of human cathepsin D spectrofluorometry
[4] = target: T2, Papain (Carica papaya) (UniProt P00784); test: Inhibition of papaya papain by spectrofluorometry
T2 sequence (whole entry): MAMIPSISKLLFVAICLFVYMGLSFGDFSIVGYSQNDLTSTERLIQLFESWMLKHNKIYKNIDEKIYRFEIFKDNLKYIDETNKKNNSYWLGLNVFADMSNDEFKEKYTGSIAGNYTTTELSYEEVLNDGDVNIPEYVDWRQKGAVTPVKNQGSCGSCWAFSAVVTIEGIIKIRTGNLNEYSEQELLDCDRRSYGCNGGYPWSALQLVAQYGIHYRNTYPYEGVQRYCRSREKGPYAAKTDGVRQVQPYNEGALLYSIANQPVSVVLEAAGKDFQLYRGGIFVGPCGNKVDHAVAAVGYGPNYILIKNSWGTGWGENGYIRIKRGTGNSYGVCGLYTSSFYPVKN

T1 sequence (Q9YQ12 whole entry): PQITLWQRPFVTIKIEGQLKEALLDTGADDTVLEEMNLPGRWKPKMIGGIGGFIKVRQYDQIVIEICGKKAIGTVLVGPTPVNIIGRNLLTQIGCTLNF
Cathepsin D (Homo sapiens), sequence (P07339 65-162 limits assumed): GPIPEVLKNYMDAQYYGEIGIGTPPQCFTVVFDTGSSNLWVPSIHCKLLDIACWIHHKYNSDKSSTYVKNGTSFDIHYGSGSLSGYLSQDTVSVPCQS
Cathepsin D (Homo sapiens), sequence (P07339 169-412 limits assumed): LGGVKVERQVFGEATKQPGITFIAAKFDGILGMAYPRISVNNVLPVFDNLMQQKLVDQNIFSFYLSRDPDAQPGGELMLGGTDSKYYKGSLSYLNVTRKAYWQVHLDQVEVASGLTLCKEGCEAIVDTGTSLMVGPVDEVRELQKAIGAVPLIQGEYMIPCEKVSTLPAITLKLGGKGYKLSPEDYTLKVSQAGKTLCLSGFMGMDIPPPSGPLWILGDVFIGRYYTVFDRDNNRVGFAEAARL

For `CC1(C)CC(=O)C2=C(C1)Nc1ccccc1NC2c1ccccc1` (racemic), which IC50 [1] is on record?
Its IC50 is 110000 nM.

What about the Ki [2] of the same compound?
The Ki was no more than 12 nM.

Which IC50 [1] does the source give for `CC1(C)CC(=O)C2=C(C1)Nc1ccccc1N(C(=O)C(=O)N1c3ccccc3NC3=C(C(=O)CC(C)(C)C3)C1c1ccccc1)C2c1ccccc1` (mixture of isomers; 5a) [listing 1 of 2 here] here?
Its IC50 is 30 nM.

What does the source list for `CC1(C)CC(=O)C2=C(C1)Nc1ccccc1N(C(=O)C(F)(F)C(=O)N1c3ccccc3NC3=C(C(=O)CC(C)(C)C3)C1c1ccccc1)C2c1ccccc1` (mixture of isomers)?
IC50 [1]: 300 nM; Ki [2]: ≤ 12 nM

`CC1(C)CC(=O)C2=C(C1)Nc1ccccc1N(C(=O)C(=O)N1c3ccccc3NC3=C(C(=O)CC(C)(C)C3)C1c1ccccc1)C2c1ccccc1` (mixture of isomers; 5a) [listing 2 of 2 here] was tested. Which inhibition [3] did it give?
The inhibition was “inactive”.

What about the inhibition [4] of the same compound?
Its inhibition is “inactive”.

Which IC50 [1] does the source give for `O=C1CC(c2ccccc2)CC2=C1C(c1ccccc1)Nc1ccccc1N2` (mixture of isomers) here?
Its IC50 is 20000 nM.

And the Ki [2]?
The Ki was no more than 12 nM.

For `CC1(C)CC(=O)C2=C(C1)Nc1ccccc1N(C(=O)C(=O)N1c3ccccc3NC3=C(C(=O)CC(C)(C)C3)C1c1ccccc1)C2c1ccccc1` (mixture of isomers; 5), which IC50 [1] is on record?
Its IC50 is 30 nM.

And the Ki [2]?
Its Ki is no more than 12 nM.

`O=C1CC(c2ccccc2)CC2=C1C(c1ccccc1)N(C(=O)C(=O)N1c3ccccc3NC3=C(C(=O)CC(c4ccccc4)C3)C1c1ccccc1)c1ccccc1N2` (mixture of isomers) was tested. Which IC50 [1] did it give?
Its IC50 is 60 nM.

And the Ki [2]?
Its Ki is no more than 12 nM.

How did the IC50 [1] turn out when `CC1(C)CC(=O)C2=C(C1)Nc1ccccc1N(C(=O)C(=O)N1c3ccccc3NC3=C(C(=O)CC(C)(C)C3)[C@H]1c1ccccc1)[C@H]2c1ccccc1` was run?
Its IC50 is greater than 1000 nM.

What about the Ki [2] of the same compound?
Its Ki is no more than 12 nM.

With `CC1(C)CC(=O)C2=C(C1)Nc1ccccc1N(C(=O)C(=O)N1c3ccccc3NC3=C(C(=O)CC(C)(C)C3)C1c1ccccc1)C2` (racemic) as the compound, how does the IC50 [1] read?
The IC50 was 100 nM.

And the Ki [2]?
Its Ki is no more than 12 nM.

With `CC1(C)CC(=O)C2=C(C1)Nc1ccccc1N(C(=O)C(=O)N1CC3=C(CC(C)(C)CC3=O)Nc3ccccc31)C2` as the compound, how does the IC50 [1] read?
Its IC50 is 200 nM.

What about the Ki [2] of the same compound?
Its Ki is no more than 12 nM.

How did the IC50 [1] turn out when `COc1cc([C@@H]2Nc3ccccc3NC3=C2C(=O)C[C@@H](c2ccccc2)C3)cc(Cl)c1O` (mixture of isomers) was run?
The IC50 was 4300 nM.

What about the Ki [2] of the same compound?
The Ki was no more than 12 nM.
